Structures can show the parent of a compound that is named as a salt. Where two headings read alike, the source gives them in different places.
System: male Std:ddY mice
Assay: Phenyl-1,4-benzoquinone-induced writhing test
Type: in vivo
Conditions: for inhibition in vivo at 1 mg/kg / ED50 / inhibition in vivo at 10 mg/kg: Mus musculus; for inhibition in vivo at 1 mg/kg / inhibition in vivo at 10 mg/kg: 1 h, 60 minutes before PBQ, read-out: Inhibitory percentage (%); for inhibition in vivo at 1 mg/kg: subcutaneously administered at a dose of 1 mg/kg; for inhibition in vivo at 10 mg/kg: orally administered at a dose of 10 mg/kg
Experimental: Phenyl-1,4-benzoquinone-induced Writhing Test Referring to the method disclosed in Proc. Soc. exp. Biol. […] For oral administration, a test compound was suspended in 0.5% tragacanth solution. […] In the control group, a physiological saline solution containing 10% Tween 80 and 10% ethanol was administered in the case of subcutaneous administration, or a 0.5% tragacanth solution was administered in the case of oral administration. The number of writhing movements in the test compound-treated group was compared with that in the control group, and the writhing inhibitory percentage was calculated therefrom and considered as an analgesic effect. Writhing inhibitory percentage (%)=[(A−B)/A]×100 In the above equation, A means the number of writhing movements in the control group, and B means the number of writhing movements in the test compound-treated group. From the writhing inhibitory percentage of the test compound, ED50 (mg/kg) was calculated by logit analysis.

[1] = sc, subcutaneous administration, writhing inhibition, logit analysis, read-out: ED50 (mg/kg sc)
[2] = po, oral administration, writhing inhibition, logit analysis, read-out: ED50 (mg/kg po)

**Q.** What does the source list for CS(=O)(=O)Nc1cc(CC(=O)Nc2cccc(C3CCCCC3)c2)ccc1O [Ex. 34, N-(3-cyclohexylphenyl)-4-hydroxy-3-(methanesulfonylamino)phenylacetamide]?
**A.** inhibition in vivo at 1 mg/kg (sc): 41.5%; ED50 [1]: 0.48 mg/kg

**Q.** Which results are given for COc1cc(CC(=O)Nc2cccc(C#Cc3ccccc3C(F)(F)F)c2)ccc1O [Ex. 37, 4-hydroxy-3-methoxy-N-[3-[2-(2-trifluoromethylphenyl)-ethynyl]phenyl]phenylacetamide]?
**A.** inhibition in vivo at 1 mg/kg (sc): 59.6%; ED50 [1]: 0.46 mg/kg

**Q.** Which inhibition in vivo at 1 mg/kg (sc) does the source give for COc1cc(CC(=O)Nc2cccc(C3CCCCCC3)c2)ccc1OCCN [Ex. 58, 4-(2-aminoethoxy)-N-(3-cycloheptylphenyl)-3-methoxyphenylacetamide hydrochloride] here?
**A.** Its inhibition in vivo at 1 mg/kg is 54.4%.

**Q.** Which inhibition in vivo at 1 mg/kg (sc) does the source give for COc1cc(CC(=O)Nc2ccccc2Cc2ccccc2)ccc1O [Ex. 97, N-(2-benzylphenyl)-4-hydroxy-3-methoxyphenylacetamide] here?
**A.** Its inhibition in vivo at 1 mg/kg is 54.9%.

**Q.** COc1cc(CC(=O)Nc2ccc3c(c2)C(=O)/C(=C/C(C)C)CC3)ccc1O [Ex. 250] was tested. Which inhibition in vivo at 1 mg/kg (sc) did it give?
**A.** Its inhibition in vivo at 1 mg/kg is 55%.

**Q.** For COc1cc(CC(=O)Nc2ccc3c(c2)C(=O)C(CC(C)C)CC3)ccc1O (stereo not drawn) [Ex. 251, 4-hydroxy-3-methoxy-N-[1-oxo-2-(2-methylpropyl)-1,2,3,4-tetrahydronaphthalen-7-yl]phenylacetamide], which inhibition in vivo at 1 mg/kg (sc) is on record?
**A.** Its inhibition in vivo at 1 mg/kg is 42.7%.

**Q.** What does the source list for COc1cc(CC(=O)Nc2cccc(C3CCCCC3)c2)ccc1O [Example 1, N-(3-cyclohexylphenyl)-4-hydroxy-3-methoxyphenylacetamide]?
**A.** inhibition in vivo at 1 mg/kg (sc): 100%; ED50 (mg/kg sc) (subcutaneous administration, writhing inhibition, logit analysis, listed as Ex. 1): 0.014 mg/kg

**Q.** How did the inhibition in vivo at 1 mg/kg (sc) turn out when COc1cc(CC(=O)Nc2cccc(C3C4CC5CC(C4)CC3C5)c2)ccc1O (stereo not drawn) [Example 3, N-[3-(adamantan-2-yl)phenyl]-4-hydroxy-3-methoxyphenylacetamide] was run?
**A.** The inhibition in vivo at 1 mg/kg was 91.3%.

**Q.** And the ED50 [1]?
**A.** Its ED50 is 0.46 mg/kg.

**Q.** COc1cc(CC(=O)Nc2cccc(C3CCCC3)c2)ccc1O [Example 4, N-(3-cyclopentylphenyl)-4-hydroxy-3-methoxyphenylacetamide] was tested. Which inhibition in vivo at 1 mg/kg (sc) did it give?
**A.** Its inhibition in vivo at 1 mg/kg is 79.6%.

**Q.** How did the inhibition in vivo at 1 mg/kg (sc) turn out when COc1cc(CC(=O)Nc2cccc(CC3CCCCC3)c2)ccc1O [Example 5, N-[3-(cyclohexylmethyl)phenyl]-4-hydroxy-3-methoxyphenylacetamide] was run?
**A.** Its inhibition in vivo at 1 mg/kg is 83.5%.

**Q.** What about the ED50 [1] of the same molecule?
**A.** Its ED50 is 0.57 mg/kg.

**Q.** Which inhibition in vivo at 1 mg/kg (sc) does the source give for COc1cc(CC(=O)Nc2cccc(C3=CCCCC3)c2)ccc1O [Example 9, N-[3-(cyclohexen-1-yl)phenyl]-4-hydroxy-3-methoxyphenylacetamide] here?
**A.** The inhibition in vivo at 1 mg/kg was 93.2%.

**Q.** And the ED50 [1]?
**A.** Its ED50 is 0.23 mg/kg.

**Q.** For COc1cc(CC(=O)Nc2cccc(C3CCCCC3c3ccccc3)c2)ccc1O (stereo not drawn) [Example 11, 4-hydroxy-3-methoxy-N-[3-(2-phenylcyclohexan-1-yl)phenyl]-phenylacetamide], which inhibition in vivo at 1 mg/kg (sc) is on record?
**A.** Its inhibition in vivo at 1 mg/kg is 88.4%.

**Q.** What about the ED50 [1] of the same molecule?
**A.** The ED50 was 0.19 mg/kg.

**Q.** What does the source list for COc1cc(CC(=O)Nc2cccc(C3CCC(C)CC3)c2)ccc1O (stereo not drawn) [Example 13, 4-hydroxy-3-methoxy-N-[3-(4-methylcyclohexan-1-yl)phenyl]-phenylacetamide]?
**A.** inhibition in vivo at 1 mg/kg (sc): 100%; ED50 [1]: ≤ 0.1 mg/kg; ED50 (mg/kg sc) (subcutaneous administration, writhing inhibition, logit analysis, listed as Ex. 13): 0.097 mg/kg

**Q.** Which results are given for COc1cc(CC(=O)Nc2cccc(-c3ccccc3)c2)ccc1O [Example 35, 4-hydroxy-3-methoxy-N-(3-phenylphenyl)phenylacetamide]?
**A.** inhibition in vivo at 1 mg/kg (sc): 89.4%; ED50 [1]: 0.23 mg/kg

**Q.** COc1cc(CC(=O)Nc2cccc(C#Cc3ccccc3)c2)ccc1O [Example 36, 4-hydroxy-3-methoxy-N-[3-(2-phenylethynyl)phenyl]phenylacetamide] was tested. Which inhibition in vivo at 1 mg/kg (sc) did it give?
**A.** Its inhibition in vivo at 1 mg/kg is 92.3%.

**Q.** And the “ED50 (mg/kg sc)” value (subcutaneous administration, writhing inhibition, logit analysis, listed as Ex. 36)?
**A.** The value was 0.046 mg/kg.

**Q.** Which results are given for COc1cc(CC(=O)Nc2cccc(CCc3ccccc3)c2)ccc1O [Example 54, 4-hydroxy-3-methoxy-N-[3-(2-phenylethyl)phenyl]phenylacetamide]?
**A.** inhibition in vivo at 1 mg/kg (sc): 90.4%; ED50 [1]: ≤ 0.1 mg/kg; ED50 (mg/kg sc) (subcutaneous administration, writhing inhibition, logit analysis, listed as Ex. 54): 0.081 mg/kg

**Q.** Which results are given for COc1cc(CC(=O)Nc2cccc(/C=C\c3ccccc3)c2)ccc1O [Example 56, 4-hydroxy-3-methoxy-N-[3-[(Z)-2-phenylvinyl]phenyl]phenylacetamide]?
**A.** inhibition in vivo at 1 mg/kg (sc): 82.7%; ED50 [1]: 0.11 mg/kg

**Q.** For COc1cc(CC(=O)Nc2cccc(-c3ccccc3)c2)ccc1OCCN.Cl [Example 63, 4-(2-aminoethoxy)-3-methoxy-N-(3-phenylphenyl)phenylacetamide], which inhibition in vivo at 10 mg/kg (po) is on record?
**A.** The inhibition in vivo at 10 mg/kg was 100%.

**Q.** What about the inhibition in vivo at 1 mg/kg (sc) of the same molecule?
**A.** Its inhibition in vivo at 1 mg/kg is 100%.

**Q.** And the “ED50 (mg/kg po)” value (oral administration, writhing inhibition, logit analysis, listed as Ex. 63)?
**A.** Its value is 0.021 mg/kg.

**Q.** And the “ED50 (mg/kg sc)” value (subcutaneous administration, writhing inhibition, logit analysis, listed as Ex. 63)?
**A.** Its value is 0.016 mg/kg.

**Q.** With COc1cc(CC(=O)Nc2cccc(C3CCC(C(C)(C)C)CC3)c2)ccc1OC(C)=O (stereo not drawn) [Example 69, 4-acetoxy-N-[3-(4-tert-butylcyclohexan-1-yl)phenyl]-3-methoxyphenylacetamide] as the molecule, how does the inhibition in vivo at 10 mg/kg (po) read?
**A.** Its inhibition in vivo at 10 mg/kg is 73.5%.

**Q.** What about the ED50 [2] of the same molecule?
**A.** The ED50 was 2.81 mg/kg.

**Q.** And the inhibition in vivo at 1 mg/kg (sc)?
**A.** The inhibition in vivo at 1 mg/kg was 99%.

**Q.** And the ED50 [1]?
**A.** The ED50 was no more than 0.1 mg/kg.

**Q.** And the “ED50 (mg/kg sc)” value (subcutaneous administration, writhing inhibition, logit analysis, listed as Ex. 69)?
**A.** Its value is 0.088 mg/kg.

**Q.** Which results are given for COc1cc(CC(=O)Nc2cccc(C3CCC(C(C)(C)C)CC3)c2)ccc1OC(=O)c1ccccc1 (stereo not drawn) [Example 70, 4-benzoyloxy-N-[3-(4-tert-butylcyclohexan-1-yl)phenyl]-3-methoxyphenylacetamide]?
**A.** inhibition in vivo at 10 mg/kg (po): 68.6%; ED50 [2]: 9.7 mg/kg; inhibition in vivo at 1 mg/kg (sc): 93.2%; ED50 [1]: 0.16 mg/kg

**Q.** With COc1cc(CC(=O)Nc2cccc(C3CCC(C(C)(C)C)CC3)c2)ccc1OC(=O)C(C)(C)C (stereo not drawn) [Example 71, 4-tert-butylcarbonyloxy-N-[3-(4-tert-butylcyclohexan-1-yl)-phenyl]-3-methoxyphenylacetamide] as the molecule, how does the inhibition in vivo at 1 mg/kg (sc) read?
**A.** Its inhibition in vivo at 1 mg/kg is 94.2%.

**Q.** What about the ED50 [1] of the same molecule?
**A.** Its ED50 is 0.16 mg/kg.

**Q.** Which results are given for COc1cc(CC(=O)Nc2cccc(C3=CCC(C(C)(C)C)CC3)c2)ccc1O (stereo not drawn) [Example 80, N-[3-(4-tert-butylcyclohexen-1-yl)phenyl]-4-hydroxy-3-methoxyphenylacetamide]?
**A.** inhibition in vivo at 1 mg/kg (sc): 100%; ED50 [1]: 0.37 mg/kg

**Q.** How did the inhibition in vivo at 1 mg/kg (sc) turn out when COc1cc(CC(=O)Nc2cccc(C3CCC(C(F)(F)F)CC3)c2)ccc1O (stereo not drawn) [Example 81, 4-hydroxy-3-methoxy-N-[3-(4-trifluoromethylcyclohexan-1-yl)-phenyl]phenylacetamide] was run?
**A.** The inhibition in vivo at 1 mg/kg was 100%.

**Q.** Which results are given for COc1cc(CC(=O)Nc2cccc(C3CCCC(C)C3)c2)ccc1O (stereo not drawn) [Example 83, 4-hydroxy-3-methoxy-N-[3-(3-methylcyclohexan-1-yl)phenyl]-phenylacetamide]?
**A.** inhibition in vivo at 1 mg/kg (sc): 83%; ED50 [1]: ≤ 0.1 mg/kg; ED50 (mg/kg sc) (subcutaneous administration, writhing inhibition, logit analysis, listed as Ex. 83): 0.10 mg/kg

**Q.** COc1cc(CC(=O)Nc2cccc(C3C(C)CCCC3C)c2)ccc1O (stereo not drawn) [Example 84, N-[3-(2,6-dimethylcyclohexan-1-yl)phenyl]-4-hydroxy-3-methoxyphenylacetamide] was tested. Which inhibition in vivo at 1 mg/kg (sc) did it give?
**A.** Its inhibition in vivo at 1 mg/kg is 67.7%.

**Q.** And the ED50 [1]?
**A.** The ED50 was 0.45 mg/kg.

**Q.** Which inhibition in vivo at 1 mg/kg (sc) does the source give for COc1cc(CC(=O)Nc2cccc(C3CC(C)CC(C)C3)c2)ccc1O (stereo not drawn) [Example 85, N-[3-(3,5-dimethylcyclohexan-1-yl)phenyl]-4-hydroxy-3-methoxyphenylacetamide] here?
**A.** The inhibition in vivo at 1 mg/kg was 76.9%.

**Q.** What about the ED50 [1] of the same molecule?
**A.** The ED50 was 0.31 mg/kg.

**Q.** Which results are given for COc1cc(CC(=O)Nc2cccc(N3CCC(C(C)(C)C)CC3)c2)ccc1O [Example 86, N-[3-(4-tert-butylpiperidin-1-yl)phenyl]-4-hydroxy-3-methoxyphenylacetamide]?
**A.** inhibition in vivo at 1 mg/kg (sc): 78.8%; ED50 [1]: 0.33 mg/kg

**Q.** What does the source list for COc1cc(CC(=O)Nc2cccc(N3CCCC(C4CCCCC4)C3)c2)ccc1O (stereo not drawn) [Example 87, N-[3-(3-cyclohexylpiperidin-1-yl)phenyl]-4-hydroxy-3-methoxyphenylacetamide]?
**A.** inhibition in vivo at 1 mg/kg (sc): 95.8%; ED50 [1]: 0.4 mg/kg

Reference: US7084176B2, “N-arylphenylacetamide derivatives and medicinal compositions containing the same” (Dainippon Pharmaceutical Co., Ltd., priority 2001, dated 2006)
